Consider six molecules from patent US20260273072A1, “NOVEL PLK1 DEGRADATION INDUCING COMPOUND” (UPPTHERA, INC., priority 2023, published 2026).

What all share (format): cell-based
The test system of one experiment is MRC-5 cell line. As to the kind of experiment: Cell viability assay for MRC-5 cell line (EZ-Cytox). To be noted: Homo sapiens, MRC5, 120 h; MRC-5 normal cell line, 5 days, 10000 nM to 1.52 nM; read-out: Activity: IC50 value, cell viability, MRC-5 cell line (Exemplary Compounds). As to the method: 4. Cell Viability Assay for MRC-5 Cell Line
(1) Culture of MRC-5 Cell Line
The MRC-5 cell line was purchased from KCLB. Passage of cultured cells was maintained within P15.
(2) Treatment of Compounds of the Present Invention
Then, it was cultured in 37° C. CO2 incubator (Thermo Fisher Scientific) for 5 days.
(3) Cytotoxicity Experiment
CO2 incubator for 4 hours.

For a further experiment, the system named is NCI-H526 cell line. As to the kind of experiment: Cell viability assay for NCI-H526 cell line (EZ-Cytox). Particulars: Homo sapiens, NCI-H526, 120 h; H526 cells, 5 days, 3000 nM to 0.46 nM. The procedure, abridged: (§1)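 Human SCLC lines cultured with compound for 5 days in a CO2 incubator; viability read by EZ-Cytox absorbance at 450 nm after 3 min shaking. IC50 reported in activity bins (A: <30 nM up to E: <400 nM).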

In a further experiment the test system is NCI-H69 cell line. The experiment in a line: Cell viability assay for NCI-H69 cell line (EZ-Cytox). To be noted: Homo sapiens, NCI-H69, 120 h; H69 cells, 5 days, 3000 nM to 0.46 nM. The procedure, abridged:
as §1

In a further experiment the target is T1, PLK1 (Homo sapiens, UniProt P53350).
T1 construct: endogenous in cells; host or cells: HeLa LgBit (Plk1-HiBit KI): HeLa stably expressing LgBit, with a CRISPR/Cas9 knock-in of HiBit at the endogenous PLK1 locus
As to the kind of experiment: Luciferase assay for PLK1 in HeLa LgBit (Plk1-HiBit KI) cell line. Particulars: 300 nM compound, luminescence after 9 hours. The procedure, abridged: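 HeLa LgBit cells with endogenous PLK1 C-terminally HiBit-tagged by CRISPR knock-in; released from 24 h 2 mM thymidine block, seeded, grown 18 h. Compounds at 300 nM with Endurazine substrate; luminescence (470-480 nm) tracked in real time, expressed as ratio to DMSO.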
In general terms: The HiBiT peptide binds its large partner to form an active luciferase.

T1 sequence (P53350 whole entry): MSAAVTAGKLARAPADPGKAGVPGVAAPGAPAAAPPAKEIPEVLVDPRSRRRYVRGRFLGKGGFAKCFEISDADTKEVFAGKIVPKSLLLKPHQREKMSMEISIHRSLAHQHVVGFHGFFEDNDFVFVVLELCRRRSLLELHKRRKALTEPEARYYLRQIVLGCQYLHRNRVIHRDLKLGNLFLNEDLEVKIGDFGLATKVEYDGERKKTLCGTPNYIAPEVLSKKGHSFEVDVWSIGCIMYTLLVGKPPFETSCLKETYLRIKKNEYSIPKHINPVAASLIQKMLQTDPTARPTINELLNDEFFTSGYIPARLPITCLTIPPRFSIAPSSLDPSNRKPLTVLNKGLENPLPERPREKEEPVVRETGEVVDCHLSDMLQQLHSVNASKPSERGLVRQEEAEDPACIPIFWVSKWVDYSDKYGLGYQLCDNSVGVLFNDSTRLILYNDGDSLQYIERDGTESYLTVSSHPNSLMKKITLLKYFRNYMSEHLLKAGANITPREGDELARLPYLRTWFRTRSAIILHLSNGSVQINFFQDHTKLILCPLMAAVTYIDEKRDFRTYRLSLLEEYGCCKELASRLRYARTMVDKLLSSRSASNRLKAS

In general, IC50 refers to the point on the concentration scale where inhibition reaches its midpoint. For the molecule `COc1cc(C(=O)NC2CCN(CCN3CCN(c4cc(Cl)c(NC5CCC(=O)NC5=O)cc4F)CC3)CC2)c(F)cc1Nc1ncc2c(n1)N(C(C)C)CC(F)(F)C(=O)N2C` (stereo not drawn) [Compound 72, N(1-(2-(4-(5-chloro-4-((2,6-dioxopiperidin-3-yl)amino)-2-fluorophenyl)piperazin-1-yl)ethyl)piperidin-4-yl)-4-((7,7-difluoro-9-isopropyl-5-methyl-6-oxo-6,7,8,9-tetrahydro-5H-pyrimido[4,5-b][1,4]diazepin-2-yl)amino)-2-fluoro-5-methoxybenzamide], the 50% inhibitory concentration (IC50) in the experiment on MRC-5 cell line is more than 10 µM; with NCI-H526 cell line, less than 0.05 µM; with NCI-H69 cell line, less than 0.1 µM. Moreover, the “Activity: ratio of the luminescence value of compound treatment group to DMSO treatment group” value (from here on “Activity: ratio”) at PLK1 is “++ (++: <0.5)”.

For the molecule `COc1cc(C(=O)NC2CCN(CCN3CCN(c4cc(Cl)c(NC5CCC(=O)NC5=O)cc4F)CC3)CC2)c(F)cc1Nc1ncc2c(n1)N(C1CCCC1)CC(F)(F)C(=O)N2C` (stereo not drawn) [Compound 73, N(1-(2-(4-(5-chloro-4-((2,6-dioxopiperidin-3-yl)amino)-2-fluorophenyl)piperazin-1-yl)ethyl)piperidin-4-yl)-4-((9-cyclopentyl-7,7-difluoro-5-methyl-6-oxo-6,7,8,9-tetrahydro-5H-pyrimido[4,5-b][1,4]diazepin-2-yl)amino)-2-fluoro-5-methoxybenzamide], the IC50 with MRC-5 cell line was more than 10 µM; in the experiment with NCI-H526 cell line, less than 0.05 µM; with NCI-H69 cell line, less than 0.1 µM. Further, the “Activity: ratio” value on PLK1 is “++ (++: <0.5)”.

In the case of `COc1cc(C(=O)NN2CCC(CCN3CCN(c4cc(C)c(NC5CCC(=O)NC5=O)cc4F)CC3)CC2)ccc1Nc1ncc2c(n1)N(C1CCCC1)CC(F)(F)C(=O)N2C` (stereo not drawn) [Compound 74, 4-((9-cyclopentyl-7,7-difluoro-5-methyl-6-oxo-6,7,8,9-tetrahydro-5H-pyrimido[4,5-b][1,4]diazepin-2-yl)amino)-N-(4-(2-(4-(4-((2,6-dioxopiperidin-3-yl)amino)-2-fluoro-5-methylphenyl)piperazin-1-yl)ethyl)piperidin-1-yl)-3-methoxybenzamide], the IC50 is more than 10 µM in the experiment on MRC-5 cell line, less than 0.03 µM with NCI-H526 cell line and less than 0.03 µM with NCI-H69 cell line. Moreover, the “Activity: ratio” value at PLK1 was “+++ (+++: <0.3)”.

As for `COc1cc(C(=O)NN2CCC(CCN3CCN(c4cc(C)c(NC5CCC(=O)NC5=O)cc4F)CC3)CC2)ccc1Nc1ncc2c(n1)N(C(C)C)CC(F)(F)C(=O)N2C` (stereo not drawn) [Compound 75, 4-((7,7-difluoro-9-isopropyl-5-methyl-6-oxo-6,7,8,9-tetrahydro-5H-pyrimido[4,5-b][1,4]diazepin-2-yl)amino)-N-(4-(2-(4-(4-((2,6-dioxopiperidin-3-yl)amino)-2-fluoro-5-methylphenyl)piperazin-1-yl)ethyl)piperidin-1-yl)-3-methoxybenzamide], the figures for the concentration for half-maximal inhibition (IC50) with MRC-5 cell line, in the experiment on NCI-H526 cell line and with NCI-H69 cell line were more than 10 µM, less than 0.03 µM and less than 0.03 µM, respectively. On PLK1, the “Activity: ratio” value is “+++ (+++: <0.3)”.

As for `COc1cc(C(=O)NN2CCC(CCN3CCN(c4cc(C#N)c(NC5CCC(=O)NC5=O)cc4F)CC3)CC2)ccc1Nc1ncc2c(n1)N(C1CCCC1)CC(F)(F)C(=O)N2C` (stereo not drawn) [Compound 76, N(4-(2-(4-(5-cyano-4-((2,6-dioxopiperidin-3-yl)amino)-2-fluorophenyl)piperazin-1-yl)ethyl)piperidin-1-yl)-4-((9-cyclopentyl-7,7-difluoro-5-methyl-6-oxo-6,7,8,9-tetrahydro-5H-pyrimido[4,5-b][1,4]diazepin-2-yl)amino)-3-methoxybenzamide], the values for the half-inhibitory concentration (IC50) with MRC-5 cell line, in the experiment on NCI-H526 cell line and with NCI-H69 cell line were more than 10 µM, less than 0.03 µM and less than 0.03 µM, respectively. For the same molecule, the “Activity: ratio” value at PLK1 is recorded as “++ (++: <0.5)”.

With `COc1cc(C(=O)NN2CCC(CCN3CCN(c4ccc(NC5CCC(=O)NC5=O)nc4)CC3)CC2)ccc1Nc1ncc2c(n1)N(C1CCCC1)CC(F)(F)C(=O)N2C` (stereo not drawn) [Compound 77, 4-((9-cyclopentyl-7,7-difluoro-5-methyl-6-oxo-6,7,8,9-tetrahydro-5H-pyrimido[4,5-b][1,4]diazepin-2-yl)amino)-N-(4-(2-(4-(6-((2,6-dioxopiperidin-3-yl)amino)pyridin-3-yl)piperazin-1-yl)ethyl)piperidin-1-yl)-3-methoxybenzamide], the IC50 with MRC-5 cell line was more than 10 µM; with NCI-H526 cell line, less than 0.03 µM; in the experiment on NCI-H69 cell line, less than 0.03 µM. The “Activity: ratio” value at PLK1 was “++ (++: <0.5)”.
